The values that follow come from US20220315554A1, “COMPOUNDS COMPRISING A […] LIGAND AND USE THEREOF” (priority 2019, published 2022).

The structures appear in SMILES notation. Numbered stars: 1 amine (or outer) side, 2 acyl side, 3 side chain; on linkers, the order of the positions; unused ones are H or OH. Bridge positions count the residues as written; N and C are the ends. Square brackets hold non-standard residues; d marks the D form. Peptide text beside a SMILES is read from it. * marks the point of attachment. X35 = O=C(O)CN(CCN(CCN(CC(=O)O)CC(=O)O)CC(=O)NCCCOCCOCCOCCCN*)CC(=O)O; X12 = NCCNCC(CNCCN)C(=O)NCCCOCCOCCOCCCN*; mXylylene = c1cc(C[*:1])cc(C[*:2])c1; X51 = O=C(CN1CCC(N[*:1])CC1)[*:2]; 4Pal = N[C@@H](Cc1ccncc1)C(=O)O; Suc = O=C(CCC(=O)[*:2])[*:1]; X18 = NCCNCC(CNCCN)C(=O)*; Nle = CCCC[C@H](N)C(=O)O; AEEA = NCCOCCOCC(=O)O

For assay [1], the target named is T1, FAP-expressing human WI-38 fibroblasts (Homo sapiens, UniProt Q12884).
T1 construct: FAP-expressing human WI-38 fibroblasts (ECACC) were cultured in EMEM; host or cells: WI-38 human fibroblasts
T1 sequence (Q12884 1-760): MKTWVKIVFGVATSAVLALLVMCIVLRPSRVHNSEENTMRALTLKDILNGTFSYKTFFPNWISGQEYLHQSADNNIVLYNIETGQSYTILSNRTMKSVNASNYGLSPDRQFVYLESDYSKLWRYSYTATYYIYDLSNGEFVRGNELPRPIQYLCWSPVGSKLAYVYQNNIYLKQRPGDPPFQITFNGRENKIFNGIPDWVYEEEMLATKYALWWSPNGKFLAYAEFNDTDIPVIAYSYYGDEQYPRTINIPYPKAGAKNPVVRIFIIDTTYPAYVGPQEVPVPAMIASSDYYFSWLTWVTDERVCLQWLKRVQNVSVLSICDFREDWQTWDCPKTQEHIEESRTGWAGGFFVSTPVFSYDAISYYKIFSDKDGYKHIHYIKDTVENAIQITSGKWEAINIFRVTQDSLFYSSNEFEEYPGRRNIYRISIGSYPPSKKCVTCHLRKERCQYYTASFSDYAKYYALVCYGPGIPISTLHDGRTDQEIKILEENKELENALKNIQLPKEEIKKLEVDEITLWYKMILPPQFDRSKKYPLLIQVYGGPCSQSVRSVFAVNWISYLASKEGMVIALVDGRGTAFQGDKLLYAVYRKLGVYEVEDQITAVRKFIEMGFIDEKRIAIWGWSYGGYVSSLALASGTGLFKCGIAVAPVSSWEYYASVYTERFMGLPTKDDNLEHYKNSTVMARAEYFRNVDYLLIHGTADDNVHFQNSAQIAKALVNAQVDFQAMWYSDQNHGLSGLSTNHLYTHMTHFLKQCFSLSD
As to the kind of experiment: Competitive FACS binding assay. To be noted: pIC50 Category (FACS), competition with 3 nM Cy5-labeled compound, 4° C., 1 hour. The method, then:
Cells were analyzed in an Attune NxT flow cytometer. […]

The next assay deals with T2, Human recombinant FAP (Homo sapiens, UniProt Q12884).
T2 sequence (Q12884 1-760): T1 sequence (Q12884 1-760)
The assay can be described thus: FRET-based FAP protease activity assay. The class given is biochemical. Further details: purchased R&D systems 3715-SE. To be noted: pIC50 Category (Activity), FRET substrate, 37° C.

In the case of `CCCCCC(=O)N[C@H]1CSCc2cc(CSCCN)cc(c2)CSC[C@@H](C(=O)O)NC(=O)[C@H](Cc2ccccc2)NC(=O)[C@H](CCC(N)=O)NC(=O)[C@H]([C@@H](C)O)NC(=O)[C@@H]2CCCN2C(=O)[C@@H]2CCCN2C1=O` [3BP-4089, Hex-[Cys(tMeBn(H-AET))-Pro-Pro-Thr-Gln-Phe-Cys]-OH], the values for the IC50 (in assay [1]; on Human recombinant FAP) were 100 to 794 nM and 10 to 79.4 nM, respectively.

As to `CCCCCC(=O)N[C@@H]1CSCc2cc(CSCCNC(=O)CN3CCN(CC(=O)O)CCN(CC(=O)O)CCN(CC(=O)O)CC3)cc(c2)CSC[C@@H](C(=O)O)NC(=O)[C@H](Cc2ccccc2)NC(=O)[C@H](CCC(N)=O)NC(=O)[C@H]([C@@H](C)O)NC(=O)[C@@H]2CCCN2C(=O)[C@@H]2CCCN2C1=O` [3BP-4109, Hex-[D-Cys-(tMeBn(DOTA-AET))-Pro-Pro-Thr-Gln-Phe-Cys]-OH], the IC50 (in assay [1]; at Human recombinant FAP) was under 10 nM throughout.

For `CCCCCC(=O)N[C@@H]1CSCc2cc(CSCCNC(=O)CN3CCN(CC(=O)O)CCN(CC(=O)O)CCN(CC(=O)O)CC3)cc(c2)CSC[C@H](C(=O)O)NC(=O)[C@H](Cc2ccccc2)NC(=O)[C@H](CCC(N)=O)NC(=O)[C@H]([C@@H](C)O)NC(=O)[C@@H]2CCCN2C(=O)[C@@H]2CCCN2C1=O` [3BP-4110, Hex-[D-Cys-(tMeBn(DOTA-AET))-Pro-Pro-Thr-Gln-Phe-D-Cys]-OH], the IC50 (in assay [1]; at Human recombinant FAP) was 10 to 79.4 nM throughout.

As for `CCCCCC(=O)N[C@H]1CSCc2cc(CSCCNC(=O)CN3CCN(CC(=O)O)CCN(CC(=O)O)CCN(CC(=O)O)CC3)cc(c2)CSC[C@H](C(=O)O)NC(=O)[C@H](Cc2ccccc2)NC(=O)[C@H](CCC(N)=O)NC(=O)[C@H]([C@@H](C)O)NC(=O)[C@@H]2CCCN2C(=O)[C@@H]2CCCN2C1=O` [3BP-4111, Hex-[Cys-(tMeBn(DOTA-AET))-Pro-Pro-Thr-Gln-Phe-D-Cys]-OH], the IC50 (in assay [1]; on Human recombinant FAP) was 10 to 79.4 nM each time.

Regarding `CCCCCC(=O)N[C@H]1CSCc2cc(cc(CN3CCN(C(=O)COCCOCCNC(=O)C(CNCCN)CNCCN)CC3)c2)CSC[C@@H](C(=O)O)NC(=O)[C@H](Cc2ccccc2)NC(=O)[C@H](CCC(N)=O)NC(=O)[C@H]([C@@H](C)O)NC(=O)[C@@H]2CCCN2C(=O)[C@@H]2CCCN2C1=O` [3BP-4169, Hex-[Cys-(tMeBn(N4Ac-O2Oc-PP))-Pro-Pro-Thr-Gln-Phe-Cys]-OH], the IC50 in assay [1] is 10 to 79.4 nM; on Human recombinant FAP, under 10 nM.

As to `CCCCCC(=O)N[C@H]1CSCc2cc(CSCCNC(=O)CCC(=O)NCCCOCCOCCOCCCNC(=O)CCC(=O)NCCCOCCOCCOCCCNC(=O)CCC(=O)NCCCOCCOCCOCCCNC(=O)CCCNCCCOCCOCCOCCCNC(=O)CCCC[C@H]3SC[C@H]4NC(=O)N[C@H]43)cc(c2)CSC[C@@H](C(=O)O)NC(=O)[C@H](Cc2ccccc2)NC(=O)[C@H](CCC(N)=O)NC(=O)[C@H]([C@@H](C)O)NC(=O)[C@@H]2CCCN2C(=O)[C@@H]2CCCN2C1=O` [3BP-4170, Hex-[Cys-(tMeBn(Bio-Ttds-Ttds-Ttds-Ttds-AET))-Pro-Pro-Thr-Gln-Phe-Cys]-OH], the IC50 (in assay [1]; on Human recombinant FAP) was 10 to 79.4 nM throughout.

In the case of `CCCCCC(=O)N[C@H]1CSCc2cc(cc(CN3CCNCC3)c2)CSC[C@@H](C(=O)O)NC(=O)[C@H](Cc2ccccc2)NC(=O)[C@H](CCC(N)=O)NC(=O)[C@H]([C@@H](C)O)NC(=O)[C@@H]2CCCN2C(=O)[C@@H]2CCCN2C1=O` [3BP-4181, Hex-[Cys-(tMeBn(H-PP))-Pro-Pro-Thr-Gln-Phe-Cys]-OH], the half-maximal inhibitory concentration (IC50) (in assay [1]; at Human recombinant FAP) was 10 to 79.4 nM in each case.

`CCCCCC(=O)N[C@H]1CSCc2cccc(c2)CSC[C@@H](C(=O)O)NC(=O)[C@H](Cc2ccccc2)NC(=O)[C@H](CCC(N)=O)NC(=O)[C@H]([C@@H](C)O)NC(=O)[C@@H]2CCCN2C(=O)[C@@H]2CCCN2C1=O` [3BP-4186, Hex-[Cys-(3MeBn)-Pro-Pro-Thr-Gln-Phe-Cys]-OH]: the IC50 (in assay [1]; at Human recombinant FAP) was 10 to 79.4 nM each time.

As for `CCCCCC(=O)N[C@H]1CSCc2cc(CSCCNC(=O)CN(CCN(CC(=O)O)CC(=O)O)CCN(CC(=O)O)CC(=O)O)cc(c2)CSC[C@@H](C(=O)O)NC(=O)[C@H](Cc2ccccc2)NC(=O)[C@H](CCC(N)=O)NC(=O)[C@H]([C@@H](C)O)NC(=O)[C@@H]2CCCN2C(=O)[C@@H]2CCCN2C1=O` [3BP-4214, Hex-[Cys-(tMeBn(DTPA-AET))-Pro-Pro-Thr-Gln-Phe-Cys]-OH], the IC50 (in assay [1]; on Human recombinant FAP) was 10 to 79.4 nM throughout.

With `CCCC[C@H](NC(=O)CN1CCC(NC(=O)C(CNCCN)CNCCN)CC1)C(=O)N[C@H]1CSCc2cccc(c2)CSC[C@@H](C(=O)O)NC(=O)[C@H](Cc2ccccc2)NC(=O)[C@H](CCC(=O)O)NC(=O)[C@H]([C@@H](C)O)NC(=O)[C@@H]2CCCN2C(=O)[C@@H]2CCCN2C1=O` [3BP-4220, N4Ac-APAc-Nle-[Cys-(3MeBn)-Pro-Pro-Thr-Glu-Phe-Cys]-OH] (X18-[X51][Nle]CPPTEFC-OH; linker 3-9 via mXylylene), the IC50 (in assay [1]; at Human recombinant FAP) was over 1000 nM each time.

Take `CCCC[C@H](NC(=O)CCC(=O)NCCCOCCOCCOCCCNC(=O)C(CNCCN)CNCCN)C(=O)N[C@H]1CSCc2cccc(c2)CSC[C@@H](C(=O)O)NC(=O)[C@H](Cc2ccncc2)NC(=O)[C@H](CCC(=O)O)NC(=O)[C@H]([C@@H](C)O)NC(=O)[C@@H]2CCCN2C(=O)[C@@H]2CCCN2C1=O` [3BP-4223, N4Ac-Ttds-Nle-[Cys-(3MeBn)-Pro-Pro-Thr-Glu-Ppa-Cys]-OH] ({X12-Suc}-[Nle]CPPTE[4Pal]C-OH; linker 2-8 via mXylylene): the IC50 (in assay [1]; at Human recombinant FAP) was 100 to 794 nM in each case.

With `CCCCCC(=O)N[C@H]1CSCc2cc(CSCCNC(=O)COCCOCCNC(=O)CN(CCN(CC(=O)O)CC(=O)O)CCN(CC(=O)O)CC(=O)O)cc(c2)CSC[C@@H](C(=O)O)NC(=O)[C@H](Cc2ccccc2)NC(=O)[C@H](CCC(N)=O)NC(=O)[C@H]([C@@H](C)O)NC(=O)[C@@H]2CCCN2C(=O)[C@@H]2CCCN2C1=O` [3BP-4224, Hex-[Cys-(tMeBn(DTPA-O2Oc-AET))-Pro-Pro-Thr-Gln-Phe-Cys]-OH], the concentration for half-maximal inhibition (IC50) (in assay [1]; at Human recombinant FAP) was 10 to 79.4 nM throughout.

For `CCCC[C@H](NC(=O)COCCOCCNC(=O)C(CNCCN)CNCCN)C(=O)N[C@H]1CSCc2cccc(c2)CSC[C@@H](C(=O)O)NC(=O)[C@H](Cc2ccccc2)NC(=O)[C@H](CCC(=O)O)NC(=O)[C@H]([C@@H](C)O)NC(=O)[C@@H]2CCCN2C(=O)[C@@H]2CCCN2C1=O` [3BP-4228, N4Ac-O2O-Nle-[Cys-(3MeBn)-Pro-Pro-Thr-Glu-Phe-Cys]-OH] ({X18-AEEA}-[Nle]CPPTEFC-OH; linker 2-8 via mXylylene), the 50% inhibitory concentration (IC50) in assay [1] is over 1000 nM; at Human recombinant FAP, 100 to 794 nM.

As to `CCCC[C@H](NC(=O)CCC(=O)NCCCOCCOCCOCCCNC(=O)CN(CCN(CC(=O)O)CC(=O)O)CCN(CC(=O)O)CC(=O)O)C(=O)N[C@H]1CSCc2cccc(c2)CSC[C@@H](C(=O)O)NC(=O)[C@H](Cc2ccccc2)NC(=O)[C@H](CCC(=O)O)NC(=O)[C@H]([C@@H](C)O)NC(=O)[C@@H]2CCCN2C(=O)[C@@H]2CCCN2C1=O` [3BP-4229, DTPA-Ttds-Nle-[Cys-(3MeBn)-Pro-Pro-Thr-Glu-Phe-Cys]-OH] ({X35-Suc}-[Nle]CPPTEFC-OH; linker 2-8 via mXylylene), the IC50 in assay [1] is 100 to 794 nM; on Human recombinant FAP it was 10 to 79.4 nM.
